Test results as given in paper PMC8847695 (Frontiers in Chemistry, 2022).

Experiments:
Assay type in all cases: binding
Conditions in all cases: 1 = hit, 0 = no hit
AAK1 (121-471) = AAK1 (121-471) (Homo sapiens, UniProt Q2M2I8); experiment: STD-NMR fragment screening, AAK1
Procedure, shortened: (§1)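 Saturation-transfer difference NMR was run at 25°C and 700 MHz with 20 µM protein, two fragments at 1 mM each, and 10% DMSO-d6. On-resonance saturation was at 0.5–0.6 ppm and off-resonance at 40 ppm, with a 3 s Gaussian-pulse train. A hit required a difference-spectrum peak at least three times the local noise.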

CAMK1G (1-320) = target: T1, CAMK1G (1-320) (Homo sapiens, UniProt Q96NX5); experiment: STD-NMR fragment screening, CAMK1G
T1 construct: made in house; host or cells: E. coli BL21 (DE3) pLysS
T1 sequence (Q96NX5 1-320): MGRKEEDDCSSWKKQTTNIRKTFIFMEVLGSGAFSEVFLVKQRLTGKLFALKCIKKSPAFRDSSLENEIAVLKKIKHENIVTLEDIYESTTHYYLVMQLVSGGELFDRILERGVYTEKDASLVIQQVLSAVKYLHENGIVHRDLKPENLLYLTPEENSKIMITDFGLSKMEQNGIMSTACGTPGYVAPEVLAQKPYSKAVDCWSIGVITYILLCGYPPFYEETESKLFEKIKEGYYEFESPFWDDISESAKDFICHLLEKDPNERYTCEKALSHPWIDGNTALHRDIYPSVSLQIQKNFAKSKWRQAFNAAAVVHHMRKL
Procedure, shortened: as §1

IDO1 (1-435) = target: T2, IDO1 (1-435) (Homo sapiens, UniProt P14902); experiment: STD-NMR fragment screening, IDO1
T2 construct: His-tag of pET15b with TEV site (thrombin site replaced) (cleaved yes); made in house; host or cells: E. coli Rosetta 2 (DE3) pLysS
T2 sequence (P14902 whole entry, the tested form may be a part): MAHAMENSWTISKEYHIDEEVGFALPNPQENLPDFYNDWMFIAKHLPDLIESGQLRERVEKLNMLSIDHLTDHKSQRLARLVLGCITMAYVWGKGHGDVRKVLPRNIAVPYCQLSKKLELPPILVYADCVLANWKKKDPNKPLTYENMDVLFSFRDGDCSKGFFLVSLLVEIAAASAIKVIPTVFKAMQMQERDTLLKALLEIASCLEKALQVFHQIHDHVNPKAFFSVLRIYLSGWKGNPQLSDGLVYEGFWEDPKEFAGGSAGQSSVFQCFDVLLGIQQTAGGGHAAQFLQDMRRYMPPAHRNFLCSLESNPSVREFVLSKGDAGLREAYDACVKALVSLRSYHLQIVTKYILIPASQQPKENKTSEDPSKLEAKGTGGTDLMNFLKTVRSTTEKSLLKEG
Procedure, shortened: as §1

DOT1L (1-416) = target: T3, DOT1L (1-416) (Homo sapiens, UniProt Q8TEK3); experiment: STD-NMR fragment screening, DOT1L
T3 construct: made in house; host or cells: E. coli BL21 (DE3) pLysS
T3 sequence (Q8TEK3 1-416): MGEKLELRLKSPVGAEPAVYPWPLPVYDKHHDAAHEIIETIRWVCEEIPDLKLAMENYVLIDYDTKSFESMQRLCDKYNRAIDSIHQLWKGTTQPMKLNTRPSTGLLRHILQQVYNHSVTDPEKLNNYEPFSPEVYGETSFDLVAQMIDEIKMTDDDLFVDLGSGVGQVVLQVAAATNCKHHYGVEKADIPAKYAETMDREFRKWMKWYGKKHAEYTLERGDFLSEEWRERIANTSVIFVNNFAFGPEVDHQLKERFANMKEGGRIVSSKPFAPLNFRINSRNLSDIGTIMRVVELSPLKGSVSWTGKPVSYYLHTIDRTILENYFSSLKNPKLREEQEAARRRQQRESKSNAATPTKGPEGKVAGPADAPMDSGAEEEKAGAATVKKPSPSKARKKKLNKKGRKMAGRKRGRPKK
Procedure, shortened: as §1

Chain of AAK1 (121-471) (Q2M2I8 46-315 limits assumed): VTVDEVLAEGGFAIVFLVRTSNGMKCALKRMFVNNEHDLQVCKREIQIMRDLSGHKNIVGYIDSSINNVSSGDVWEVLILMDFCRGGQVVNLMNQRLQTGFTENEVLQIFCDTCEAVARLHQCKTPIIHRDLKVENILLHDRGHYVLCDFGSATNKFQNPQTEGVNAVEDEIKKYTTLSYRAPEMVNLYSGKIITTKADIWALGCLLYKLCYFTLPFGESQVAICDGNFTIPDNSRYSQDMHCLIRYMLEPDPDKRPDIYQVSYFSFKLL

Compound | AAK1 (STD-NMR hit flag) (AAK1 (121-471)) | CAMK1G (STD-NMR hit flag) (CAMK1G (1-320)) | IDO1 (STD-NMR hit flag) (IDO1 (1-435)) | DOT1L (STD-NMR hit flag) (DOT1L (1-416))
CC(=O)CS(=O)(=O)c1cc(Cl)ccc1F [Fragment B02297765] | 0 | 0 | 0 | 0
Nc1ccc(Br)c(C(=O)O)n1 [Fragment B02297395] | 0 | 0 | 0 | 0
O=C(O)CCc1nc(Br)n[nH]1 [Fragment B02290119] | 0 | 0 | 0 | 0
COc1nc(N)ncc1I [Fragment B02289608] | 1 | 1 | 0 | 0
Nc1ncc(C(=O)O)cc1Br [Fragment B02297655] | 0 | 0 | 0 | 0
Brc1cncnc1 [Fragment B02289809] | 0 | 0 | 0 | 0
NC(=O)c1nc(Cl)n[nH]1 [Fragment B02290118] | 0 | 0 | 0 | 0
Brc1ccc(C2CNCCN2)s1 (stereo not shown) [Fragment B02297408] | 0 | 0 | 0 | 0
CCOC(Cn1cc(Cl)cn1)OCC [Fragment B02291225] | 0 | 0 | 1 | 0
Clc1ncccn1 [Fragment B02291224] | 0 | 0 | 0 | 0
O=C(O)C(O)c1ccccc1Cl (stereo not shown) [Fragment B02291247] | 0 | 0 | 0 | 0
NCCCn1cc(Cl)cn1 [Fragment B02290117] | 0 | 0 | 0 | 0
Brc1cnc(N2CCCNCC2)nc1 [Fragment B02290087] | 0 | 1 | 0 | 0
NCc1cc(Cl)c2c(c1)OCCCO2 [Fragment B02291242] | 0 | 0 | 0 | 0
CS(=O)(=O)c1ncc(Cl)c(C(=O)O)n1 [Fragment B02291223] | 0 | 0 | 0 | 0
Clc1ncnc2[nH]ccc12 [Fragment B02291254] | 1 | 1 | 1 | 0
O=C(O)c1nccc(Cl)c1Cl [Fragment B02290659] | 0 | 0 | 0 | 0
COc1ncc(C(=O)O)cc1Cl [Fragment B02297423] | 1 | 1 | 1 | 0
Brc1cnc(N2CCNCC2)nc1 [Fragment B02297422] | 1 | 1 | 0 | 0

Compound | AAK1 (STD-NMR hit flag) (AAK1 (121-471)) | CAMK1G (STD-NMR hit flag) (CAMK1G (1-320)) | IDO1 (STD-NMR hit flag) (IDO1 (1-435)) | DOT1L (STD-NMR hit flag) (DOT1L (1-416))
CCn1ncc(Br)c1C(N)=O [Fragment B02291150] | 1 | 1 | 0 | 0
O=C(O)c1cncc(Cl)c1 [Fragment B02289604] | 1 | 0 | 0 | 0
Nc1ncc(Br)cc1C(=O)O [Fragment B02289612] | 0 | 0 | 1 | 0
O=C(O)c1ccc(Cl)c(O)c1 [Fragment B02289615] | 0 | 0 | 0 | 0
O=C(O)c1cncc(Cl)n1 [Fragment B02289611] | 0 | 0 | 0 | 0
Cn1c(Cl)c(C#N)c(=O)n(C)c1=O [Fragment B02291234] | 1 | 1 | 1 | 1
Cc1ccc(C(N)=O)c(Cl)n1 [Fragment B02291227] | 1 | 0 | 0 | 0
Cc1c(Cl)c([N+](=O)[O-])nn1CC(=O)O [Fragment B02290123] | 0 | 0 | 1 | 0
O=C(O)c1c(I)ccnc1F [Fragment B02290658] | 0 | 0 | 0 | 0
COc1ccc(CN)c(Cl)c1 [Fragment B02290088] | 0 | 0 | 0 | 0
CCn1ncc(Br)c1CNC [Fragment B02291155] | 0 | 0 | 0 | 0
OC1CCN(c2cc(Cl)ncn2)CC1 [Fragment B02297410] | 1 | 0 | 0 | 0
OCc1ccc(Cl)nc1 [Fragment B02289606] | 0 | 0 | 0 | 0
O=S(=O)(c1ccc(Cl)s1)N1CCNCC1 [Fragment B02291236] | 0 | 0 | 0 | 0
O=C(O)c1cc(Br)c[nH]1 [Fragment B02291264] | 0 | 0 | 0 | 0
Cc1ccc(Cl)c(CN)c1F [Fragment B02290525] | 0 | 0 | 0 | 0
O=C(O)c1c(Cl)cncc1Cl [Fragment B02297411] | 0 | 0 | 1 | 0
Nc1cnccc1I [Fragment B02289607] | 1 | 0 | 0 | 0
